Columns and labels:
PIK3CA = PIK3CA (UniProt P42336); test: Inhibition of PIK3CA Kinase Activity
[1] = target: PIK3CA, P42336 [Wild Type]; test: Inhibition of PIK3CA (Wild Type) Kinase Activity
Chain of PIK3CA, P42336 [Wild Type] (P42336 whole entry, looked up): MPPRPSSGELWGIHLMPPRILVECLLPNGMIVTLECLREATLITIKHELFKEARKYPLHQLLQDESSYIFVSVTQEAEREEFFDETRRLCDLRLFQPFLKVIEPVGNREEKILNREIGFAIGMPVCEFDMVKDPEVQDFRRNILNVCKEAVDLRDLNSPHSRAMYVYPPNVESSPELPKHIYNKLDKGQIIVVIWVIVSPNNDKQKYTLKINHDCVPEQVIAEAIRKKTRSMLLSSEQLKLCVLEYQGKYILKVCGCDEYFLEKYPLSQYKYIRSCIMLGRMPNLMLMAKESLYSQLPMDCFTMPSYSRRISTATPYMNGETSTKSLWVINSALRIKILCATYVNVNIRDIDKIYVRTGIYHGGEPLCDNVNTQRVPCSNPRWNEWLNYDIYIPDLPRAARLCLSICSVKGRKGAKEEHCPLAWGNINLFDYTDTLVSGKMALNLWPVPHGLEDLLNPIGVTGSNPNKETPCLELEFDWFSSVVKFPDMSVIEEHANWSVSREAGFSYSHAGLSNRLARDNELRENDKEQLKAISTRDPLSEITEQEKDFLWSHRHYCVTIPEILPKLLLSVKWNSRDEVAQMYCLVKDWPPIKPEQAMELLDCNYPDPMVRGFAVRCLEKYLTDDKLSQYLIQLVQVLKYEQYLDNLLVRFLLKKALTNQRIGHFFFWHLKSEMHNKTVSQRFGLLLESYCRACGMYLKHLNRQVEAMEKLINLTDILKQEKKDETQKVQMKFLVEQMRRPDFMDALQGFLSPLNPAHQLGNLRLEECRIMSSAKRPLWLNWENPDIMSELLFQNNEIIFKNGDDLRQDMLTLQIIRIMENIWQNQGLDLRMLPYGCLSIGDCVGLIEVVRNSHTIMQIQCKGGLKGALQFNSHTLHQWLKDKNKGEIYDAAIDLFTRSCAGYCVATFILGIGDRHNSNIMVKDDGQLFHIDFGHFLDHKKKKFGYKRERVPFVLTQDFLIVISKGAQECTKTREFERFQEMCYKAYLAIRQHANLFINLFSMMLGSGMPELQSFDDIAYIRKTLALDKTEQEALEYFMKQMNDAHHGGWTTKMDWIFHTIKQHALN

Chain of PIK3CA (P42336 whole entry, looked up): as above

| IC50 (PIK3CA) | IC50 [1] | SMILES |
| --- | --- | --- |
| 68 µM | 31 µM | CCCc1c(N2CCOCC2)oc2ccccc2c1=O |
| 15 µM | 2.6 µM | O=c1cc(N2CCOCC2)oc2ccccc12 |
| 4.4 µM | 28 µM | CCc1c(N2CCOCC2)oc2ccccc2c1=O |
| > 200 µM | > 200 µM | O=c1c(-c2ccccc2)c(N2CCOCC2)oc2ccccc12 |

The remaining lines, values behind:

| SMILES | IC50 (PIK3CA) | IC50 [1] |
| --- | --- | --- |
| Cc1c(N2CCOCC2)oc2ccccc2c1=O | 40 µM | 33 µM |
| O=c1c(Cc2ccccc2)c(N2CCOCC2)oc2ccccc12 | > 200 µM | > 200 µM |
| CC(C)c1c(N2CCOCC2)oc2ccccc2c1=O | > 200 µM | 51 µM |
| CCCCc1c(N2CCOCC2)oc2ccccc2c1=O | 48 µM | 25 µM |
